The record followed here is PMC7272617 (Scientific Reports, 2020).

Data set [1] relates to MDR P. aeruginosa clinical isolate No.11. The data set is described as follows: microbe, parasite or virus in culture. As to conditions: Pseudomonas aeruginosa.
Data set [2] concerns MDR P. aeruginosa clinical isolate No.2. In words: microbe, parasite or virus in culture. The settings on record: Pseudomonas aeruginosa.
The subject of data set [3] is Pseudomonas aeruginosa ATCC 27853. In words: microbe, parasite or virus in culture. The settings on record: ATCC27853, 24 h.
In data set [4] the test system is MDR P. aeruginosa clinical isolate No.13. The data set is described as follows: microbe, parasite or virus in culture. The settings on record: Pseudomonas aeruginosa.
Data set [5] relates to MDR P. aeruginosa clinical isolate No.3. The data set is described as follows: microbe, parasite or virus in culture. As to conditions: Pseudomonas aeruginosa.
The subject of data set [6] is MDR P. aeruginosa clinical isolate No.8. In words: microbe, parasite or virus in culture. The settings on record: Pseudomonas aeruginosa.
Data set [7] has as its system MDR P. aeruginosa clinical isolate No.14. The data set is described as follows: microbe, parasite or virus in culture. The settings on record: Pseudomonas aeruginosa.
Data set [8] concerns MDR P. aeruginosa clinical isolate No.12. In words: microbe, parasite or virus in culture. As to conditions: Pseudomonas aeruginosa.
Data set [9] concerns MDR P. aeruginosa clinical isolate No.7. In words: microbe, parasite or virus in culture. As to conditions: Pseudomonas aeruginosa.
The subject of data set [10] is MDR P. aeruginosa clinical isolate No.5. The data set is described as follows: microbe, parasite or virus in culture. The settings on record: Pseudomonas aeruginosa.
The subject of data set [11] is MDR P. aeruginosa clinical isolate No.9. The data set is described as follows: microbe, parasite or virus in culture. The settings on record: Pseudomonas aeruginosa.
Data set [12] concerns MDR P. aeruginosa clinical isolate No.1. The data set is described as follows: microbe, parasite or virus in culture. As to conditions: Pseudomonas aeruginosa.
Data set [13] concerns MDR P. aeruginosa clinical isolate No.4. The data set is described as follows: microbe, parasite or virus in culture. As to conditions: Pseudomonas aeruginosa.
Data set [14] deals with MDR P. aeruginosa clinical isolate No.10. In words: microbe, parasite or virus in culture. The settings on record: Pseudomonas aeruginosa.
The test system of data set [15] is MDR P. aeruginosa clinical isolate No.6. In words: microbe, parasite or virus in culture. As to conditions: Pseudomonas aeruginosa.
Data set [16] relates to Acinetobacter baumannii MT strain. The settings on record: Acinetobacter baumannii MT strain; MHB, 37 °C, 24 h.
In data set [17] the test system is Bacillus cereus ATCC 11778. As to conditions: Bacillus cereus ATCC 11778; MHB, 37 °C, 24 h.
Data set [18] relates to Pseudomonas aeruginosa ATCC 27853. The settings on record: P. aeruginosa ATCC 27853; MHB, 10^7 CFU/ml, 37 °C, 24 h, no visible turbidity.
Data set [19] relates to Listeria monocytogenes 10403 s. The settings on record: Listeria monocytogenes 10403 s; MHB, 37 °C, 24 h.
For data set [20], the system named is all Gram-negative strains. The data set is described as follows: Mean MIC and therapeutic index, Gram-negative strains. Format: cell-based. The settings on record: 7 Gram-negative strains of Table 3. Here is the method: (§1) The antimicrobial activity of the peptides was determined against both Gram-positive and -negative bacteria including 14 MDR P. aeruginosa clinical isolates from Bhumibol Adulyadej Hospital (Tables 1 and 3). The minimal inhibitory concentration (MIC) of each peptide was measured according to a modification of the National Committee for Clinical Laboratory Standards (NCCLS) broth microdilution method as previously described. Briefly, bacterial cells in mid-log phase were cultured in Müeller-Hinton broth (MHB) and then diluted to 10^7 CFU/ml. […] Plates were incubated at 37 °C for 24 h, and MICs were defined as the lowest concentration of peptide that prevented visible turbidity. Cultures without peptides and uninoculated MHB were employed as positive and negative controls, respectively. Colony count assays were performed to determine the minimal bactericidal concentrations (MBCs) for determination of time-killing activity. As previously described, a 50 μl aliquot from each non-turbid well identified in the MIC determination experiment was spread on agar plates.
(§2) To further evaluate the global activity of these peptides, the geometric mean (GM) MIC and the therapeutic index (TI) of each were calculated (Table 3). The TI, a widely used parameter to evaluate cell selectivity and specificity of antimicrobial agents, was calculated as the ratio of MHC (the concentration that causes 10% hemolysis) to the geometric mean of MICs[22]. Higher TIs indicated greater cell selectivity and specificity.

In data set [21] the test system is all Gram-positive strains. The data set is described as follows: Mean MIC and therapeutic index, Gram-positive strains. Format: cell-based. As to conditions: 5 Gram-positive strains of Table 3. On the procedure:
as §1, §2

The subject of data set [22] is Enterococcus faecalis ATCC 29212. As to conditions: Enterococcus faecalis ATCC 29212; MHB, 37 °C, 24 h.
For data set [23], the system named is Staphylococcus epidermidis ATCC 12228. As to conditions: S. epidermidis ATCC 12228; MHB, 37 °C, 24 h.
For data set [24], the system named is Salmonella Typhimurium ATCC 13311. As to conditions: Salmonella Typhimurium ATCC 13311; MHB, 37 °C, 24 h.
Data set [25] concerns L929 mouse fibroblast cells. In words: Cytotoxicity, MTT viability assay. The settings on record: 250 µg/ml, 24 h, triplicate. (In general: Formazan colour is commonly taken as a measure of viable cells.)
Data set [26] concerns Shigella sonnei ATCC 11060. As to conditions: MHB, 37 °C, 24 h.
Data set [27] concerns Escherichia coli O157:H7 MT strain. The settings on record: E. coli O157:H7 MT strain; MHB, 37 °C, 24 h.
In data set [28] the test system is Vibrio cholera O1 Inaba DMST 16261. As to conditions: MHB, 37 °C, 24 h.
Data set [29] concerns human red blood cells (hRBCs). The data set is described as follows: Hemolytic activity, hemoglobin release. As to conditions: 2% hRBC, 1 h, 37 °C. On the procedure: Hemolytic activity of the peptides was assayed against human red blood cells (hRBCs) by measuring the amount of hemoglobin released after treatment. The hRBCs, freshly collected from a healthy volunteer in polycarbonate tubes containing heparin, were washed three times in sterile phosphate buffered saline (PBS) and centrifuged at 2,000 × g for 5 min or until the supernatant became clear. […] After 1 h of incubation at 37 °C, intact hRBCs were pelleted by centrifugation at 2,000 × g for 10 min. The supernatant was transferred to a new 96-well plate and the release of hemoglobin was monitored by measurement of absorbance at 405 nm using a Multiskan FC microplate reader. The hRBCs in PBS only (ODBlank) and in 0.1% Triton X-100 (ODTriton X-100) were employed as negative (0% hemolysis) and positive (100% hemolysis) controls, respectively. The percentage of hemolysis was calculated according to the following equation: %Hemolysis=(ODSample−ABlank)/(ODTritonX−100−ODBlank)×100

Data set [30] deals with P. aeruginosa ATCC 27853. The data set is described as follows: Membrane permeability (PI) and depolarization (BOX), flow cytometry. The class given is cell-based, Pseudomonas aeruginosa. The settings on record: 1 × MIC, 30 min; for permeabilized and depolarized cells (BOX+PI+): 37 °C, triplicate. On the procedure: Their outer and inner membranes provide important protection for Gram-negative bacteria. To assess membrane permeability and depolarization induced by PA-13, the DNA intercalating dyes propidium iodide (PI) and bis-(1,3-dibutylbarbituric acid) trimethine oxonol (BOX) were used as previously described. The fluorescence conferred by these dyes is generally associated with the loss of membrane integrity and potential, respectively.
Briefly, P. aeruginosa ATCC 27853 was cultured to mid-logarithmic phase and harvested by centrifugation at 2,000 × g for 5 min. The bacterial cells were washed thrice with PBS and diluted to 10^7 CFU/ml in 50 ml of PBS. […] Bacterial pellets were harvested and washed with PBS by centrifugation at 10,000 × g for 10 min. […] Untreated bacterial cells (no peptide) served as a negative control, whereas bacterial cells treated with melittin served as a positive control. Data was recorded using a flow cytometer (CytoFlex, Beckman Coulter) at a laser excitation wavelength of 488 nm. Forward scatter (FS), side scatter (SS), green fluorescence (530/30 nm) from BOX and red fluorescence (585/42 nm) emitted by PI were collected using logarithmic scales. 25,000 cells, defined according to their scatter parameters, were counted in each sample. The experiments were performed in triplicate and the data was analyzed using Kaluza software.

The structures appear in SMILES notation. Converted amounts (≈) assume the structure as drawn. Where two headings read alike, the source gives them in different places.

In the case of `C[C@@H](O)[C@H]1C(=O)N2C(C(=O)O)=C(SCCN=CN)C[C@H]12` [Imipenem], the MIC in [1] is above 125 µg/mL; in data set [2] it was above 125 µg/mL; in data set [3], at most 0.98 µg/mL; in data set [4], 62.5 µg/mL (≈ 209 µM); in data set [5], above 125 µg/mL; in [6], 125 µg/mL (≈ 418 µM). Moreover, the MIC in [7] was above 125 µg/mL; in [8], 125 µg/mL (≈ 418 µM); in data set [9], above 125 µg/mL; in [10], 125 µg/mL (≈ 418 µM); in data set [11] it was above 125 µg/mL; in data set [12], above 125 µg/mL. For the same compound, the MIC in data set [13], in [14] and in data set [15] was above 125 µg/mL each time.
For the compound `CC[C@H](C)[C@H](NC(=O)CN)C(=O)NCC(=O)N[C@@H](C)C(=O)N[C@H](C(=O)N[C@@H](CC(C)C)C(=O)N[C@@H](CCCCN)C(=O)N[C@H](C(=O)N[C@@H](CC(C)C)C(=O)N[C@H](C(=O)N[C@H](C(=O)NCC(=O)N[C@@H](CC(C)C)C(=O)N1CCC[C@H]1C(=O)N[C@@H](C)C(=O)N[C@@H](CC(C)C)C(=O)N[C@H](C(=O)N[C@@H](CO)C(=O)N[C@@H](Cc1c[nH]c2ccccc12)C(=O)N[C@H](C(=O)N[C@@H](CCCCN)C(=O)N[C@@H](CCCNC(=N)N)C(=O)N[C@@H](CCCCN)C(=O)N[C@@H](CCCNC(=N)N)C(=O)N[C@@H](CCC(N)=O)C(=O)N[C@@H](CCC(N)=O)C(N)=O)[C@@H](C)CC)[C@@H](C)CC)[C@@H](C)O)[C@@H](C)O)C(C)C)C(C)C` [Melittin, reference compound], the MIC was determined as 7.81 µg/mL (≈ 2.74 µM) in data set [16]; 3.91 µg/mL (≈ 1.37 µM) in data set [17]; 15.63 µg/mL (≈ 5.49 µM) in data set [18]; 3.91 µg/mL (≈ 1.37 µM) in data set [19]; 1.95 µg/mL (≈ 0.685 µM) in data set [22]; 3.91 µg/mL (≈ 1.37 µM) in data set [23]. Besides, the MIC worked out at 3.91 µg/mL (≈ 1.37 µM) in data set [24], 3.91 µg/mL (≈ 1.37 µM) in [26], 7.81 µg/mL (≈ 2.74 µM) in data set [27] and 3.91 µg/mL (≈ 1.37 µM) in data set [28]. Besides, in data set [20], the “GM (Gr.− strains): geometric mean of MIC values from all Gram-negative strains” value came out at 10.60 µg/mL. The “GM (Gr.+ strains): geometric mean of MIC values from all Gram-positive strains” value in [21] worked out at 3.52 µg/mL. Besides, the “L929 cell survival at the maximum concentration” value in data set [25] is recorded as “less than 1%”. Further, in data set [29], the “concentration at which hemolysis was complete (100%)” value was 1950 ng/mL. In addition, in data set [30], the “cell population BOX+PI-” value was 2.70%. In addition, the “cell population BOX-PI+” value in [30] is reported as 0.12%. In addition, the “cell population BOX-PI-” value in [30] is 3.14%. The “permeabilized and depolarized cells (BOX+PI+)” value in [30] was 94.04%; in data set [30] (listed as melittin), 94.04 ± 3.25%.
